Earlier results, collected in patent US6461848B1, “Human heparanase polypeptide and cDNA” (Novartis AG, priority 1998, dated 2002).

What was measured:
heparanase [1] = target: T1, heparanase (Mus musculus, UniProt Q6YGZ1)
T1 sequence (Q6YGZ1 28-535): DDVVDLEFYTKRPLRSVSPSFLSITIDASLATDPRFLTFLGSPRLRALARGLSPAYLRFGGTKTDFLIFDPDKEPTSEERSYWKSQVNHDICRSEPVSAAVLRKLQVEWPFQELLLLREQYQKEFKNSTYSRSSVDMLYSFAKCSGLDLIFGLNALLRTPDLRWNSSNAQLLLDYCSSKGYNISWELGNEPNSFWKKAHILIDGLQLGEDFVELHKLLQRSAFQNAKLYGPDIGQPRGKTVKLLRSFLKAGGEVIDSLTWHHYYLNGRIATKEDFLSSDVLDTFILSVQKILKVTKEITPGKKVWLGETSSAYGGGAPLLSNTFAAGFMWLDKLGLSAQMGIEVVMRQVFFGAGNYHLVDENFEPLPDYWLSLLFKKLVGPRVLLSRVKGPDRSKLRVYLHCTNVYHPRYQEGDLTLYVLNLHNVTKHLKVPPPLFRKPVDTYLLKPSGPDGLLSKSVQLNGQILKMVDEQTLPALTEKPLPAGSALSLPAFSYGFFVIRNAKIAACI

heparanase [2] = target: T2, heparanase (Homo sapiens, UniProt Q9Y251)
T2 sequence (Q9Y251 36-543): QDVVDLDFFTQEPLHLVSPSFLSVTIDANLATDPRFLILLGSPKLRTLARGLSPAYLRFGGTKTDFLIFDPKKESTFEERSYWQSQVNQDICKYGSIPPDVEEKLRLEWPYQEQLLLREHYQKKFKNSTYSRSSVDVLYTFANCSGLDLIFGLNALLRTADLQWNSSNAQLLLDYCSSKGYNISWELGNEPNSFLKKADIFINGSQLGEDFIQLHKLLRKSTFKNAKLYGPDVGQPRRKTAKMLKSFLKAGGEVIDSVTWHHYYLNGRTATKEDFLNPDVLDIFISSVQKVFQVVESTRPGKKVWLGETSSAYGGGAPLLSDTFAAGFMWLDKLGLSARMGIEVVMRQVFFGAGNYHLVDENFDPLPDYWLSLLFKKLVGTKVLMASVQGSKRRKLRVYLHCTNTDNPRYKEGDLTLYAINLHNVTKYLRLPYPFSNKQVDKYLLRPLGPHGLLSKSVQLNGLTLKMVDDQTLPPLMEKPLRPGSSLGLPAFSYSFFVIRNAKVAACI

[3] = test system: human pancreatic (Ca-Pan-2) adenocarcinoma; details: subcutaneous Ca-Pan-2 adenocarcinoma, nude mice
B16-F10 melanoma = details: C57BL/6N mice, B16-F10 experimental lung metastasis
[4] = target: T3, murin melanoma heparanase (Mus musculus, UniProt Q6YGZ1)
T3 construct: host or cells: murine melanoma
T3 sequence (Q6YGZ1 28-535): T1 sequence (Q6YGZ1 28-535)

heparin
inhibition of heparanase (heparanase [1]): inhibited

2,3-O-desulfated heparin
inhibition of heparanase activity (heparanase [2]): inhibit | inhibition of tumor growth [3]: inhibit | survival times (B16-F10 melanoma): prolonged

Cc1ccc(C(=O)Nc2ccc(S(=O)(=O)O)c3cc(S(=O)(=O)O)cc(S(=O)(=O)O)c23)cc1NC(=O)c1cccc(NC(=O)Nc2cccc(C(=O)Nc3cc(C(=O)Nc4ccc(S(=O)(=O)O)c5cc(S(=O)(=O)O)cc(S(=O)(=O)O)c45)ccc3C)c2)c1 [Suramin]
inhibition of murin melanoma heparanase [4]: strongly inhibit | inhibition of melanoma invasion (murin melanoma): strongly inhibit

O=C(O)[C@@H](O)[C@H]1OC(=O)[C@H](O)[C@H]1O [1,4-saccharolactone]
inhibition of heparanase (heparanase [1]): not
